Reference: article PMC6337391 (Molecules, 2019)

What was measured:
[1] = Reducing activity with the stable radical DPPH
Method: The chalcones were studied for the antioxidant activity (reducing activity RA%) by the use of the stable free radical 2,2-diphenyl-1-picrylhydrazyl radical (DPPH) at concentrations 0.05 mM after 20 and 60 min (Table 2). In this procedure, the dominant chemical reaction involved is the reduction of the DPPH radical by single electron transfer from the antioxidant. […] For the sake of comparison, we measured the RA% values for the intermediate double ethers d which were included in the Table 2.
To a solution of DPPH (final concentration 0.05 mM) in absolute ethanol an equal volume of the compounds solution in DMSO (stock solution 10 mM) dissolved in ethanol was added. Absolute ethanol was used as a control. The concentrations of the solutions of the compounds were 0.05 and 0.1 mM. The absorbance was recorded at 517 nm at room temperature after 20 and 60 min [29] (Table 2).

[2] = Inhibition of linoleic acid lipid peroxidation (AAPH)
Excerpt: The water soluble 2,2′-azobis(2-amidinopropane) hydrochloride (AAPH) generates in vitro free radicals through spontaneous thermal decomposition. […] Overall, chalcones a, b, and c present anti-lipid peroxidation activity. […] The inhibiting activities for the rest b chalcones ranged from 15–44%. The intermediate ethers are moderate inhibitors. […] This might be correlated with the presence of the double C=C–COCH3 group. […] Both have a long ether chain in their structure.
In an aqueous solution spectrophotometrically at 234 nm the production of conjugated diene hydro peroxide by oxidation of sodium linoleate was monitored and recorded according to our previous published experimental conditions, using 10 µL of the 16 mM sodium linoleate solution added to the UV cuvette containing 930 μL of 0.05 M phosphate buffer, pH 7.4 pre-thermostated at 37 °C, under air by the addition of 50 μL of 40 mM AAPH solution, which was used as a free radical initiator. Ten microliters (10 μL) of the appropriate solutions of the tested compounds were added in the mixture, whereas same level of DMSO was used as a blank for the measurement of lipid oxidation. The rate of oxidation at 37 °C was monitored by recording the increase in absorption at 234 nm caused by conjugated diene hydro peroxides.

[3] = system: L929 mouse fibroblasts cells; assay: Cytotoxicity, propidium iodide fluorescence method; format: cell-based; conditions: 24-h incubation
Method: The cytotoxicity of the synthesized derivatives against L929 mouse fibroblasts cells was determined using the propidium iodide (PI) fluorescence method in the presence of different concentrations (1–100 μM) of these compounds. The results are presented in Table 4 in the form of the % cell survival values as PI% for the examined compounds. […] Chalcones c7, c8, c11, and c12 follow.
L929 mouse fibroblasts cells were cultured in EMEM supplemented with 10% horse serum, 2 mM L-glutamine, 1 mM sodium pyruvate, 0.1 mM nonessential amino acids, 1.5 g/L sodium bicarbonate, and 100 μg/mL penicillin–streptomycin at 37 °C in a humidified atmosphere with 5% CO2. L929 cells were plated into 24-well plates at a density […] and allowed to attach and grow for 24 h. The supernatant in each well then replaced with medium containing various concentrations (1, 10, 20, 50 and 100 μM) of compounds a5–12, c5–12, di, and dii–dvi, which presented the more interesting results in the in vitro experiments. After 24-h incubation, the supernatant was removed and the cells were washed with PBS. The cells were detached with 0.25% trypsin, transferred to FACS tubes, and then centrifuged (1600 rpm for 5 min) and the pellet washed with PBS. After washing, the cells in the pellet were incubated with 5 μL propidium iodide (PI) solution (1 mg/mL) for 1 min. The PI fluorescence (cell death) was determined with flow cytometry, FACS Calibur, Coulter Epics XL-MCL (Beckman, Inc., Mount Holly, NJ, USA). The analysis of flow cytometry data was performed with the WinMDI analysis program (Table 4).

[4] = Lipophilicity as RM values by RP-TLC; format: physicochemical; design: key: RM = log[(1/Rf) − 1]; conditions: methanol/water 70/30, SD < 10%
Excerpt: It is well-documented and discussed in the literature that lipophilicity is a very significant physicochemical property which may critically affect distribution, bioavailability, metabolic activity and elimination, all the useful characteristics for the kinetics of biologically active compounds. Thus, we attempted to determine experimentally the lipophilicity of the synthesized compounds from the RPTLC method as RM values. The method is considered to be a reliable, fast and convenient method for expressing lipophilicity. Moreover, many calculated methods were used in order to predict the logP value.
Reversed phase TLC (RP-TLC) was performed on silica gel plates impregnated with 5% (v/v) liquid paraffin in light petroleum ether. The mobile phase was a methanol/water mixture (70/30, v/v). The plates were developed in closed chromatography tanks saturated with the mobile phase at 24 °C. Spots were detected under UV light. Five individual measurements of Rf values were recorded and used for the determination of RM using the equation RM = log [(1/Rf) − 1]. (Table 3).

[5] = ABTS•+ decolorization assay
Method: The decolorization assay is used to evaluate the antioxidant activity. The ABTS^•+ cationic radical is derived from the direct oxidation of ABTS by potassium persulfate. No involvement of an intermediary radical is observed. The addition of electron-donating antioxidants reduce ABTS^•+.
Stock solutions of the tested compounds in DMSO (10 mM) were diluted. […] aliquots of each sample were added into the ABTS·^+ solution and the absorbance was recorded at room temperature. Trolox was used as a standard.

soybean lipoxygenase = target: T1, soybean lipoxygenase (Glycine max, UniProt P08170); assay: biochemical; format: biochemical; conditions: soybean LOX
T1 sequence (P08170 1-839): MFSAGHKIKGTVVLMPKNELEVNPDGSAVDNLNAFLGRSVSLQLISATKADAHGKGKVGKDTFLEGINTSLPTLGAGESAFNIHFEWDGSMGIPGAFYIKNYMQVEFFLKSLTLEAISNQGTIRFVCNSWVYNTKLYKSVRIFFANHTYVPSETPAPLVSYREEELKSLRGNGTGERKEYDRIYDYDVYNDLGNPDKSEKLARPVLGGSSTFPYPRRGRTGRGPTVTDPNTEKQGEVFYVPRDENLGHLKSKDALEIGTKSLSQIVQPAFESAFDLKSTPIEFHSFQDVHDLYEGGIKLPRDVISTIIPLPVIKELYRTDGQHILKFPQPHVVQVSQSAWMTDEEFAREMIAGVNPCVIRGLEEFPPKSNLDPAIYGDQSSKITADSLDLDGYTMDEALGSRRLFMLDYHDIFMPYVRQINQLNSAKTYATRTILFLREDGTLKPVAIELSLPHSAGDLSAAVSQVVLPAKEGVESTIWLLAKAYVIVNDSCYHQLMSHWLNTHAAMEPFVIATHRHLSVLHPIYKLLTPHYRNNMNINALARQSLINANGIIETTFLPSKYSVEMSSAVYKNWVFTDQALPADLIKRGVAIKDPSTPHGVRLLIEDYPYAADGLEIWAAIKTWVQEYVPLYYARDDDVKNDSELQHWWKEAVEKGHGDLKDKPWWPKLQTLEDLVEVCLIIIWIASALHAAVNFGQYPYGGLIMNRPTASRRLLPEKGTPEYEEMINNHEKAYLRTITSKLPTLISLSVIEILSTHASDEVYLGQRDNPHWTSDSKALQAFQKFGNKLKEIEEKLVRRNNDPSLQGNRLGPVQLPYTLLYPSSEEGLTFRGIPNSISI
Excerpt: In our experiments we used soybean lipoxygenase. Designing agents to modulate activities of the variety of so closely homologous enzymes, such as different LOXs, require an intimate knowledge of their 3D structures, as well as information about metabolism of the potential xenobiotics. […] Due to lack of sufficiently-purified human enzymes most of the research has been done on soybean LOX [52, 53]. Although this enzyme is not identical to the mammalian one, it seems that there is a sufficient qualitative correlation between values for enzyme inhibition with the two enzymes.
In vitro study was evaluated as reported previously. The tested compounds as stock solutions were dissolved in DMSO. Ten microliters (10 μL) were incubated at room temperature with sodium linoleate ([…]) and 0.2 mL of enzyme solution (1/9 × 10^−4 w/v in saline) in buffer pH 9 (tris) at room temperature (final volume 1 mL). […] Several concentrations were used for the determination of IC50 values.

Structure (SMILES) | RA% 100 μM 20 min [1] | RA% 100 μM 60 min [1] | AAPH% @ 100 μM (anti-lipid peroxidation) [2] [%] | 10 μM Average (% pi) ± σ [3] [%] | 20 μM Average (% pi) ± σ [3] [%] | 50 μM Average (% pi) ± σ [3] [%] | 100 μM Average (% pi) ± σ [3] [%] | RM [4] | ABTS•+ Inhb. % @ 100 μM [5] | % LOX Inhb. @ 100 μM (soybean lipoxygenase) [%] | 1 μM Average (% pi) ± σ [3] [%] | IC50 (soybean lipoxygenase; read-out: LOX IC50) [µM]
O=C(/C=C/C=C/c1ccc([N+](=O)[O-])cc1)c1ccc(O)cc1 [a11, (2E,4E)-1-(4-hydroxyphenyl)-5-(4-nitrophenyl) penta-2,4-dien-1-one] | 7% | 3% | 55 | 6.26 ± 3 | 18.81 ± 2.57 | 67.84 ± 6.45 | 67.84 ± 6.45 | −1.09 | 14% | 36 |  | 
O=C(/C=C/c1ccco1)c1ccc(O)cc1 [a10, (E)-3-(furan-2-yl)-1-(4-hydroxyphenyl) prop-2-en-1-one] | 23% | 10% | 24 | 2.25 ± 0.38 | 2.39 ± 1.08 | 17.15 ± 0.32 | 17.15 ± 0.32 | −0.06 | 2% | 23 | 3.03 ± 0.88 | 
O=C(/C=C/C=C/c1ccccc1)c1ccc(O)cc1 [a7, (2E,4E)-1-(4-hydroxyphenyl)-5-phenylpenta-2,4-dien-1-one] | 19% | 6% | 31 | 9.27 ± 1.9 | 9.24 ± 6.49 | 60.95 ± 0.01 | 60.95 ± 0.01 | −0.64 | 12% | 4 | 6.85 ± 3.12 | 
CC(/C=C/C(=O)c1ccc(O)cc1)=C\c1ccccc1 [a8, (2E,4E)-1-(4-hydroxyphenyl)-4-methyl-5-phenylpenta-2,4-dien-1-one] | 6% | 2% | 32 | 2.95 ± 1.23 | 1.84 ± 2.05 | 8.15 ± 0.34 | 8.15 ± 0.34 | −0.68 | No | 14 | 1.39 ± 0.1 | 
O=C(/C=C/c1cccs1)c1ccc(O)cc1 [a5, (E)-1-(4-hydroxyphenyl)-3-(thiophen-2-yl) prop-2-en-1-one] | 17% | 3% | 23 |  | 28.32 ± 2.91 | 36.15 ± 2.33 | 36.15 ± 2.33 | −0.62 | No | 9 | 11.36 ± 0.62 | 
O=C(/C=C/C(Br)=C\c1ccccc1)c1ccc(O)cc1 [a9, (2E,4E)-4-bromo-1-(4-hydroxyphenyl)-5-phenylpenta-2,4-dien-1-one] | 10% | 1% | 33 | 0.59 ± 0.83 | 2.7 ± 0.68 | 7.59 ± 0.13 | 7.59 ± 0.13 | −0.82 | No | 16 | 0.55 ± 0.09 | 
O=C(/C=C/c1ccco1)c1ccc(OCCCOc2ccc(C(=O)/C=C/c3ccco3)cc2)cc1 [c10, (2E,2′E)-1,1′-((propane-1,3-diylbis(oxy))bis(4,1-phenylene))bis(3-(furan-2-yl)prop-2-en-1-one)] | No | no | 77 | 13.48 ± 10.36 | 25.93 ± 9.73 | 32.11 ± 9.38 | 32.11 ± 9.38 | 0.7 | 11% | 57 | 18.10 ± 11.82 | 85
